Experimental data published in US6358736B1, “Method for increasing the antigen presenting ability of leukemia cells” (The United States of America as represented by the …, priority 1995, dated 2002).

Columns and labels:
[1] = tested on: human peripheral blood monocytes; experiment: FACS analysis of cell surface markers on cultured peripheral blood monocytes; type: cell-based
[2] = tested on: bone marrow-derived CD34pos cells; experiment: FACS and morphologic analysis of cultured bone marrow-derived CD34pos cells; type: cell-based, human
Description: Bone marrow-derived highly purified CD34^pos cells were cultured for six days in medium containing 20% fetal calf serum, rhSCF, rhGM-CSF, and rhTNF-alpha. […] Cells were centrifuged and replated in 24 well plates in fresh medium containing rhGM-CSF, and rhTNF-alpha but not rhSCF. In addition, individual wells were treated with varied doses of ionophore A23187. Wells were harvested 1, 2, and 6 days subsequently, subjected to FACS analysis or studied morphologically for DC characteristics utilizing polylysine-coated glass slides and Nomarski optics.

[3] = tested on: HL-60 cells; experiment: FACS analysis of cell surface markers on HL-60 cells; type: cell-based, human
Description: Calcium was removed from cultured cells by two methods.
The second method involved washing the cells extensively in calcium-free RPMI medium, and culturing them in the same calcium-free medium supplemented with serum that had been dialyzed against calcium-free phosphate-buffered saline.
The calmodulin kinase inhibitors KN-62 (20 uM) or KT-5926 (1 uM) was added to HL-60 cells in the presence of 188 ng/ml A23187. Twenty four hours later the level of CD80 was analyzed.
Thapsigargin was added to cultured human peripheral blood monocytes and HL-60 cells in concentrations ranging from 0 to 1000 nM. Cells were harvested 24 hours later and evaluated for the acquisition of ADC immunophenotypic characteristics by FACS analysis.
Cells were harvested after three days, irradiated (3000R), then FACS analyzed or cocultured in graded numbers with freshly prepared naive (CD45RO negative) T lymphocytes. Allosensitization was assessed by pulsing at day 4 with ^3H-TdR and harvesting 18 hours later.

[4] = tested on: HL-60 cells cocultured with allogeneic naive T cells; experiment: T cell allosensitization by irradiated treated HL-60 cells (3H-TdR); type: cell-based, human; settings: A23187 180 ng/ml with or without rhGM-CSF 20 ng/ml and IFN-gamma 1000 u/ml, three days
Description: Fresh allogeneic naive (CD45R0 negative) T cells were prepared and cocultured with graded numbers of irradiated (3000R) HL-60 cells treated under the above-described conditions. Four days later the cultures were pulsed with ^3H-TdR (tritiated thymidine) and harvested 18 hours later.

[5] = tested on: monocytes cocultured with autologous CD8+ T cells; experiment: Autologous CD8+ T cell sensitization to peptide-pulsed monocytes (interferon gamma secretion); type: cell-based, human
Description: Monocyte-rich elutriation fractions from healthy HLA-A2.1 donors were either untreated or treated with ionophore A23187 750 ng/ml for 40 hours, then pulsed with either the M1 influenza-derived peptide or the MART1 melanoma-derived peptide (the M1 peptide is a “recall antigen” for all HLA-A2.1^pos individuals, whereas the MART1 peptide is usually a “recall antigen” only for HLA-A2.^pos patients with melanoma). Antigen-pulsed monocytes were cocultured with freshly prepared autologous CD8^+ T cells for 8-10 days; the T cells were then harvested and cocultured with peptide-pulsed HLA-A2.1 positive T2 stimulator cells which had been pulsed 2 hours with 1 μg/ml of either the MART1 peptide, the influenza M1 derived peptide, or an irrelevant HIV peptide to assess whether specific sensitization to FLU or MART1 peptides was attained.
After 40 hours, the cells were pulsed with a tumor derived HER2neu (369-377) peptide for two hours, harvested, then FACS analyzed or cocultured for 8-10 days with naive autologous CD8^+ T cells to determine whether rapid sensitization to the HER2neu peptide could be achieved.

[6] = tested on: B cell subpopulation within the PBMC; experiment: FACS analysis of B cell subpopulation in unfractionated PBMC; type: cell-based, human; settings: A23187 750 mg/ml, 40 hours
Description: (§1) PBMC were prepared by leukapheresis and Ficoll-Hypaque and placed in culture. Since the cells were never elutriated and no adherence step was performed, these cultures included large numbers of T, B, and NK lymphocytes as well as monocytes. The medium was our standard RPMI 10% human AB serum with antibiotics including amphotericin B. Cells were either untreated or treated for 40 hours with calcium ionophore A23187 750 mg/ml. Cells were then harvested and analyzed by FACS. Cells were stained with FITC conjugated anti-CD3, anti-CD40, anti-CD57, anti-CD14, or the combination; in addition cells were stained with PE conjugated control antibodies, anti-B7.1, anti-B7.2, etc. In this way the effect of calcium ionophore treatment on each parameter could be clearly delineated.

[7] = tested on: monocyte subpopulation within PBMC; experiment: FACS analysis of monocyte subpopulation in unfractionated PBMC; type: cell-based, human; settings: A23187 750 ng/ml, 40 hours
Description: as §1, with “cultures deliberately” for “cultures”, “ng/ml.” for “mg/ml.”, “anti-CD 14,” for “anti-CD14,”

[8] = tested on: adherence-enriched monocytes; experiment: FACS analysis of monocytes enriched by Ficoll separation and adherence; type: cell-based, human; settings: A23187 750 ng/ml, 20 hours
Description: Blood was drawn in heparinized syringes (approximately 80 cc), diluted 1:1 with normal saline, layered on Ficoll-Hypaque, and centrifuged for 20 minutes to remove neutrophils and red blood cells. The peripheral blood mononuclear cell (PBMC) containing interface were washed, counted, and added to 24 well plates, 2 cc culture medium per well, 2×10^7 cells per well.
After 60 minutes the non adherent cells were removed, leaving a half confluent surface of adherent cells in each well (i.e., monocyte enrichment by adherence) Wells were either untreated or treated with calcium ionophore A23 187 750 ng/ml, and harvested 20 hours later.

[9] = as E78, vs expression prior to culture
[10] = calcium-free RPMI and dialyzed serum
[11] = within 18 hours of treatment initiation

CNc1ccc2oc(C[C@H]3O[C@@]4(CC[C@H]3C)O[C@H]([C@H](C)C(=O)c3ccc[nH]3)[C@H](C)C[C@H]4C)nc2c1C(=O)O [A23187]
optimal concentration for DC differentiation of monocytes ([1]; 10% FCS): 180 to 375 ng/mL
CD14 expression downregulated ([1]; 20 hours, 10% AB serum, amphotericin B omitted, low endotoxin, A23187 750 ng/ml or cytokines (rhIL4 1000 u/ml; +rhGM-CSF 100 ng/ml; +rhTNF-alpha 100 u/ml)): 90%
surface marker expression in purified monocyte and DC cultures ([1]; A23187 750 ng/ml, 40 hours): upregulation of B7.1, B7.2, ICAM-1., HLA-DR, HLA-ABC, CD40, and CD83
surface marker expression of purified (>98%) CD14pos monocytes vs prepurified fractions ([1]; A23187 750 ng/ml, 40 hours): downregulated CD14, and upregulated B7.1, B7.2, ICAM-1, HLA-DR, HLA-ABC, CD40 and CD83 equivalently
activation and dendritic cell phenotypic conversion of pooled monocyte plus DC fractions ([1]; added at the beginning of a 24-48 hr culture period): uniform activation and dendritic cell phenotypic conversion
B7.1 expression increase [1, 9]: 14 fold
B7.2 expression increase [1, 9]: 7.5 fold
CD83 expression increase [1, 9]: 8.7 fold
HLA-ABC expression increase [1, 9]: 3.0 fold
HLA-DQ expression increase [1, 9]: 3.4 fold
HLA-DR increase [1, 9]: 2.9 fold
suppression of ionophore-induced B7.1 upregulation [1, 10]: 100%
suppression of ionophore-induced CD14 downregulation [1, 10]: 53%
optimal concentration for DC differentiation of monocytes ([1]; media with 5% AB serum): 375 to 750 ng/mL
CD40 expression ([1]; more uniform by 40 hours of treatment): Modest upregulation of CD40
optimal concentration for DC differentiation of monocytes ([1]; serum free media): 45 to 90 ng/mL
morphology by electron microscopy ([1]; within 20-40 hours of treatment): markedly increased endoplasmic reticulum, lysosomal and Golgi content
B7.1 (CD80) expression [1, 11]: Variable levels of de novo expression of B7.1 (CD80)
B7.2 (CD86) expression [1, 11]: marked upregulation of B7.2 (CD86)
CD83 expression [1, 11]: de novo and essentially uniform expression
cell surface CD14 expression [1, 11]: marked downregulation of cell surface CD14
increase in purity of cells with activated myeloid dendritic cell phenotype at final harvest [2]: approximately six
CD14 expression ([2]; 375-750 ng/ml, within 20 hours): marked CD14 downregulation
cells with marked upregulation of B7.1, B7.2, ICAM-1, CD83, CD40 and CD1a ([2]; 375-750 ng/ml, within 20 hours): > 85 % of cells
increase in yield of cells with activated myeloid dendritic cell phenotype vs wells without ionophore ([2]; absolute numbers of cells recovered): approximately three
optimal concentration for dendritic cell immunophenotype ([2]; within 20 hours of treatment): 375 to 750 ng/mL
morphology ([2]; within 40 hours of treatment): virtually all cells manifested dendritiform morphology
costimulatory molecule expression ([3]; A23187 180 ng/ml, three days): marked upregulation of costimulatory molecules B7.1, B7.2, and ICAM-1
HLA-DR expression ([3]; agent alone): not induced
ablation of ionophore-induced upregulation of CD80 and CD86 [3, 10]: ~100%
allostimulation of naive T cells [4]: significantly allostimulatory
stimulation of autologous T cell response to recall antigen M1 influenza peptide, vs untreated monocytes ([5]; A23187 750 ng/ml, 40 hours, HLA-A2.1 donors): equally able
sensitization of autologous T cells to MART1 peptide ([5]; A23187 750 ng/ml, 40 hours, eight normal donors): in every instance
T cell sensitization to HER2neu (369-377) peptide ([5]; monocytes treated 40 hours, majority of patients): could not be achieved
B7.1 and B7.2 expression [6]: a subpopulation of B cells developed marked B71 and B72 expression
CD14 expression [7]: downregulation of CD14 to a background level
increase of B7.1 expression [7]: seven
increase of B7.2 expression [7]: 10 fold
increase of CD40 expression [7]: 7 fold
increase of CD83 expression [7]: 11 fold
increase of HLA-DR expression [7]: 9 fold
increase of ICAM-1 expression [7]: 4.5 fold
B7.1 and CD83 expression [8]: de novo B7.1 and CD83 expression
B7.2, HLA-DR and CD40 expression [8]: upregulated B72, HLA-DR, and CD40 expression
CD14 expression [8]: uniform CD14 downregulation
